From ChEMBL document CHEMBL4184095, “Identification of novel small-molecule inhibitors of Zika virus infection” (Bioorg Med Chem Lett, 2018)

Tests used:
[1] = Cytotoxicity against human A549 cells assessed as cell viability at 10 uM by MTT assay relative to control; format: cell-based; conditions: read-out: Activity
[2] = Cytotoxicity against human A549 cells assessed as cell viability at 0.1 uM by MTT assay relative to control; format: cell-based; conditions: read-out: Activity
[3] = Cytotoxicity against human A549 cells assessed as cell viability at 1 uM by MTT assay relative to control; format: cell-based; conditions: read-out: Activity
[4] = Cytotoxicity against human A549 cells assessed as cell viability at 100 uM by MTT assay relative to control; format: cell-based; conditions: read-out: Activity
Zika virus [5] = experiment: Antiviral activity against Zika virus infected in human A549 cells preincubated for 5 hrs followed by compound wash measured after 48 hrs by viral plague-forming assay; format: functional, organism-based
Zika virus [6] = experiment: Antiviral activity against Zika virus infected in human A549 cells assessed as virus titer preincubated for 5 hrs followed by compound wash measured after 48 hrs by viral plague-forming assay; format: functional

| SMILES | viability at 10 µM [1] [%] | viability at 0.1 µM [2] [%] | viability at 1 µM [3] [%] | viability at 100 µM [4] [%] | IC50 (Zika virus [5]) [nM] | Activity (Zika virus [6]) [log10PFU/ml] |
| --- | --- | --- | --- | --- | --- | --- |
| COc1ccc(CCCn2ncc3c2nc(N)n2nc(-c4ccco4)nc32)cc1 | 77.2 | 94.7 | 106 | 41.6 | 3060 | – |
| C=CCSc1nsc(NC(=O)Nc2cccc(C(C)=O)c2)n1 | 96.7 | 104 | 105 | 21.6 | 160 | 7 |
| O=C(Nc1nc(SCCOc2ccccc2)ns1)Nc1ccc(F)cc1F | 95.5 | 96.2 | 102 | 27.3 | 4940 | – |
| O[C@H]1CC[C@H](Nc2nc(-c3ccccc3)nc3[nH]ccc23)CC1 | 98.5 | 106 | 111 | 41.7 | 58.6 | – |
| C#CCSc1nsc(NC(=O)Nc2ccccc2Cl)n1 | 89.9 | 98.1 | 96.2 | 21.4 | 1680 | – |
| C=CCSc1nsc(NC(=O)Nc2ccc(Cl)cc2)n1 | 51.2 | 100 | 98.1 | 15.1 | 0.189 | – |
| COc1ccc(C2CNC(=O)NC2)cc1O[C@@H]1C[C@H]2CC[C@H]1C2 | 94.3 | 96.6 | 104 | 43.3 | 182 | – |
| C=CCSc1nsc(NC(=O)Nc2ccc(F)cc2F)n1 | 90.2 | 100 | 100 | 31.3 | 4480 | – |
| C#CCSc1nsc(NC(=O)Nc2ccc(Cl)c(C(F)(F)F)c2)n1 | 74.1 | 99.8 | 97.8 | 18 | 26.9 | – |
| C=CCSc1nsc(NC(=O)Nc2ccc(Cl)cc2C(F)(F)F)n1 | 95.8 | 102 | 104 | 43.1 | 0.318 | – |
| O=S(=O)(c1c(F)c(F)c(F)c(F)c1F)N1CCN(c2ccccc2)CC1 | 77 | 93.1 | 103 | 35 | 0.87 | 7 |
| CCCn1c(=O)[nH]c2nc(-c3ccc(S(=O)(=O)N4CCN(c5ccc(Cl)cc5)CC4)cc3)[nH]c2c1=O | 86.5 | 97.7 | 97.4 | 35.8 | 43.8 | – |
| COc1ccc([C@@H]2CNC(=O)C2)cc1OC1CCCC1 [(-)-ROLIPRAM] | 92.5 | 95.7 | 97.1 | 39.1 | 77.6 | – |
| CCCOc1cc([C@]2(C)CNC(=O)O2)ccc1OC [DAXALIPRAM] | 95.3 | 101 | 106 | 41.8 | 769 | – |
| CN1CCCC1=O [METHYLPYRROLIDONE] | 99.4 | 98.6 | 102 | 39.3 | – | – |
| COCCOc1ccc(N2CCN(CCn3ncc4c3nc(N)n3nc(-c5ccco5)nc43)CC2)cc1 [PRELADENANT] | 57 | 109 | 104 | 27.9 | 136 | 7 |
| COc1ccc(C2CNC(=O)C2)cc1OC1CCCC1 (stereo not drawn) [ROLIPRAM] | 101 | 107 | 114 | 43.4 | 44.6 | 7 |
| COc1ccc([C@H]2CNC(=O)C2)cc1OC1CCCC1 [S-ROLIPRAM] | 97 | 96.5 | 105 | 40.9 | 25.8 | – |
| Nc1nc(NCCc2ccc(O)cc2)nc2nc(-c3ccco3)nn12 [ZM-241385] | 77.8 | 107 | 110 | 32.6 | 1070 | – |
